Key:
Test in all cases: relative viability (nuclei count vs DMSO), 5 days (fraction); higher = more cells survive
[1] = compound: C1=CC2=NC=CN=C2C=C1/C=C/3\C(=O)NC(=O)S3 + CC(=O)c1c(C)c2cnc(Nc3ccc(N4CCNCC4)cn3)nc2n(C2CCCC2)c1=O [Palbociclib] (partner 0.5 µM)
Summary of the method: (§1)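 Five library-drug doses in √10 steps were combined with a fixed anchor-drug dose, or a single drug was given alone, by pin tool to lung cancer cell lines in 1536-well plates the day after seeding. Nuclei were stained and counted after 5 days. Relative viability is the nuclei count in treated wells over that in vehicle wells, taken as the median of duplicate plates.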

BGJ398 + Decitabine = compound: CCN1CCN(c2ccc(Nc3cc(N(C)C(=O)Nc4c(Cl)c(OC)cc(OC)c4Cl)ncn3)cc2)CC1 [BGJ398] + Nc1ncn([C@H]2C[C@H](O)[C@@H](CO)O2)c(=O)n1 [Decitabine] (partner 2 µM)
Summary of the method: as §1

[2] = compound: C1=CC2=NC=CN=C2C=C1/C=C/3\C(=O)NC(=O)S3 + NC(=O)Nc1cc(-c2cccc(F)c2)sc1C(=O)N[C@H]1CCCNC1 [AZD7762] (partner 0.2 µM)
Summary of the method: as §1

BGJ398 + Crizotinib = compound: CCN1CCN(c2ccc(Nc3cc(N(C)C(=O)Nc4c(Cl)c(OC)cc(OC)c4Cl)ncn3)cc2)CC1 [BGJ398] + C[C@@H](Oc1cc(-c2cnn(C3CCNCC3)c2)cnc1N)c1c(Cl)ccc(F)c1Cl [Crizotinib] (partner 1 µM)
Summary of the method: as §1

NCI-H1793
relative viability ([1]; first compound 0.02 µM): 0.289
relative viability ([1]; first compound 0.06325 µM): 0.296
relative viability ([1]; first compound 0.2 µM): 0.282
relative viability ([1]; first compound 0.6325 µM): 0.336
relative viability ([1]; first compound 2 µM): 0.288
relative viability (BGJ398 + Decitabine; first compound 0.01 µM): 0.479
relative viability (BGJ398 + Decitabine; first compound 0.03162 µM): 0.457
relative viability (BGJ398 + Decitabine; first compound 0.1 µM): 0.451
relative viability (BGJ398 + Decitabine; first compound 0.3162 µM): 0.423
relative viability (BGJ398 + Decitabine; first compound 1 µM): 0.376
relative viability ([2]; first compound 0.02 µM): 0.573
relative viability ([2]; first compound 0.06325 µM): 0.271
relative viability ([2]; first compound 0.2 µM): 0.612
relative viability ([2]; first compound 0.6325 µM): 0.309
relative viability ([2]; first compound 2 µM): 0.347

NCI-H520
relative viability ([1]; first compound 0.02 µM): 0.211
relative viability ([1]; first compound 0.06325 µM): 0.246
relative viability ([1]; first compound 0.2 µM): 0.251
relative viability ([1]; first compound 0.6325 µM): 0.181
relative viability ([1]; first compound 2 µM): 0.201
relative viability (BGJ398 + Crizotinib; first compound 0.01 µM): 0.829
relative viability (BGJ398 + Crizotinib; first compound 0.03162 µM): 0.72
relative viability (BGJ398 + Crizotinib; first compound 0.1 µM): 0.395
relative viability (BGJ398 + Crizotinib; first compound 0.3162 µM): 0.456
relative viability (BGJ398 + Crizotinib; first compound 1 µM): 0.281
relative viability (BGJ398 + Decitabine; first compound 0.01 µM): 0.538
relative viability (BGJ398 + Decitabine; first compound 0.03162 µM): 0.436
relative viability (BGJ398 + Decitabine; first compound 0.1 µM): 0.397
relative viability (BGJ398 + Decitabine; first compound 0.3162 µM): 0.242
relative viability (BGJ398 + Decitabine; first compound 1 µM): 0.295

A549
relative viability (BGJ398 + Crizotinib; first compound 0.01 µM): 0.73
relative viability (BGJ398 + Crizotinib; first compound 0.03162 µM): 0.811
relative viability (BGJ398 + Crizotinib; first compound 0.1 µM): 0.758
relative viability (BGJ398 + Crizotinib; first compound 0.3162 µM): 0.843
relative viability (BGJ398 + Crizotinib; first compound 1 µM): 0.783
relative viability (BGJ398 + Decitabine; first compound 0.01 µM): 0.155
relative viability (BGJ398 + Decitabine; first compound 0.03162 µM): 0.288
relative viability (BGJ398 + Decitabine; first compound 0.1 µM): 0.232
relative viability (BGJ398 + Decitabine; first compound 0.3162 µM): 0.289
relative viability (BGJ398 + Decitabine; first compound 1 µM): 0.223

NCI-H1563
relative viability (BGJ398 + Crizotinib; first compound 0.01 µM): 0.875
relative viability (BGJ398 + Crizotinib; first compound 0.03162 µM): 0.812
relative viability (BGJ398 + Crizotinib; first compound 0.1 µM): 0.846
relative viability (BGJ398 + Crizotinib; first compound 0.3162 µM): 0.794
relative viability (BGJ398 + Crizotinib; first compound 1 µM): 0.728

NCI-H1395
relative viability ([1]; first compound 0.02 µM): 0.621
relative viability ([1]; first compound 0.06325 µM): 0.58
relative viability ([1]; first compound 0.2 µM): 0.642
relative viability ([1]; first compound 0.6325 µM): 0.622
relative viability ([1]; first compound 2 µM): 0.594
relative viability (BGJ398 + Decitabine; first compound 0.01 µM): 0.684
relative viability (BGJ398 + Decitabine; first compound 0.03162 µM): 0.692
relative viability (BGJ398 + Decitabine; first compound 0.1 µM): 0.609
relative viability (BGJ398 + Decitabine; first compound 0.3162 µM): 0.648
relative viability (BGJ398 + Decitabine; first compound 1 µM): 0.649
relative viability ([2]; first compound 0.02 µM): 0.392
relative viability ([2]; first compound 0.06325 µM): 0.393
relative viability ([2]; first compound 0.2 µM): 0.424
relative viability ([2]; first compound 0.6325 µM): 0.372
relative viability ([2]; first compound 2 µM): 0.411

NCI-H2009
relative viability ([1]; first compound 0.02 µM): 0.241
relative viability ([1]; first compound 0.06325 µM): 0.241
relative viability ([1]; first compound 0.2 µM): 0.216
relative viability ([1]; first compound 0.6325 µM): 0.171
relative viability ([1]; first compound 2 µM): 0.16
relative viability (BGJ398 + Crizotinib; first compound 0.01 µM): 1
relative viability (BGJ398 + Crizotinib; first compound 0.03162 µM): 1.04
relative viability (BGJ398 + Crizotinib; first compound 0.1 µM): 1.02
relative viability (BGJ398 + Crizotinib; first compound 0.3162 µM): 1.04
relative viability (BGJ398 + Crizotinib; first compound 1 µM): 1.02
relative viability (BGJ398 + Decitabine; first compound 0.01 µM): 0.358
relative viability (BGJ398 + Decitabine; first compound 0.03162 µM): 0.371
relative viability (BGJ398 + Decitabine; first compound 0.1 µM): 0.399
relative viability (BGJ398 + Decitabine; first compound 0.3162 µM): 0.425
relative viability (BGJ398 + Decitabine; first compound 1 µM): 0.361

SW 900
relative viability ([1]; first compound 0.02 µM): 0.491
relative viability ([1]; first compound 0.06325 µM): 0.545
relative viability ([1]; first compound 0.2 µM): 0.511
relative viability ([1]; first compound 2 µM): 0.602
relative viability (BGJ398 + Decitabine; first compound 0.01 µM): 0.447
relative viability (BGJ398 + Decitabine; first compound 0.03162 µM): 0.421
relative viability (BGJ398 + Decitabine; first compound 0.1 µM): 0.371
relative viability (BGJ398 + Decitabine; first compound 0.3162 µM): 0.469
relative viability (BGJ398 + Decitabine; first compound 1 µM): 0.43
relative viability ([2]; first compound 0.02 µM): 0.653
relative viability ([2]; first compound 0.06325 µM): 0.571
relative viability ([2]; first compound 0.2 µM): 0.652
relative viability ([2]; first compound 2 µM): 0.525

IA-LM
relative viability (BGJ398 + Crizotinib; first compound 0.01 µM): 0.91
relative viability (BGJ398 + Crizotinib; first compound 0.03162 µM): 0.996
relative viability (BGJ398 + Crizotinib; first compound 0.1 µM): 0.657
relative viability (BGJ398 + Crizotinib; first compound 0.3162 µM): 0.908
relative viability (BGJ398 + Crizotinib; first compound 1 µM): 0.793

SK-LU-1
relative viability ([1]; first compound 0.02 µM): 0.376
relative viability ([1]; first compound 0.06325 µM): 0.367
relative viability ([1]; first compound 0.2 µM): 0.374
relative viability ([1]; first compound 0.6325 µM): 0.403
relative viability ([1]; first compound 2 µM): 0.411
relative viability (BGJ398 + Crizotinib; first compound 0.01 µM): 0.905
relative viability (BGJ398 + Crizotinib; first compound 0.03162 µM): 0.906
relative viability (BGJ398 + Crizotinib; first compound 0.1 µM): 1.01
relative viability (BGJ398 + Crizotinib; first compound 0.3162 µM): 0.926
relative viability (BGJ398 + Crizotinib; first compound 1 µM): 0.787
relative viability (BGJ398 + Decitabine; first compound 0.01 µM): 0.62
relative viability (BGJ398 + Decitabine; first compound 0.03162 µM): 0.572
relative viability (BGJ398 + Decitabine; first compound 0.1 µM): 0.761
relative viability (BGJ398 + Decitabine; first compound 0.3162 µM): 0.527
relative viability (BGJ398 + Decitabine; first compound 1 µM): 0.584

NCI-H1703
relative viability (BGJ398 + Crizotinib; first compound 0.01 µM): 0.694
relative viability (BGJ398 + Crizotinib; first compound 0.03162 µM): 1.17
relative viability (BGJ398 + Crizotinib; first compound 0.1 µM): 0.796
relative viability (BGJ398 + Crizotinib; first compound 0.3162 µM): 0.638
relative viability (BGJ398 + Crizotinib; first compound 1 µM): 0.863
relative viability ([2]; first compound 0.02 µM): 0.126
relative viability ([2]; first compound 0.06325 µM): 0.109
relative viability ([2]; first compound 0.2 µM): 0.135
relative viability ([2]; first compound 0.6325 µM): 0.124
relative viability ([2]; first compound 2 µM): 0.128

NCI-H1648
relative viability ([1]; first compound 0.02 µM): 0.301
relative viability ([1]; first compound 0.06325 µM): 0.223
relative viability ([1]; first compound 0.2 µM): 0.345
relative viability ([1]; first compound 2 µM): 0.23
relative viability (BGJ398 + Decitabine; first compound 0.01 µM): 0.571
relative viability (BGJ398 + Decitabine; first compound 0.1 µM): 0.511
relative viability (BGJ398 + Decitabine; first compound 0.3162 µM): 0.476
relative viability (BGJ398 + Decitabine; first compound 1 µM): 0.402
relative viability ([2]; first compound 0.02 µM): 0.659
relative viability ([2]; first compound 0.06325 µM): 0.562
relative viability ([2]; first compound 0.2 µM): 0.806
relative viability ([2]; first compound 2 µM): 0.706

— the supplement of paper PMC10307832
